Values quoted from earlier work as cited in patent US7015235B2, “Acylated piperidine derivatives as melanocortin-4 receptor agonists” (priority 2001, dated 2006).

Tested on: men

In the case of Cc1ccc(N(CC2=NCCN2)c2cccc(O)c2)cc1 [phentolamine], the duration of effect (after an oral dose) is given as 2 h, the onset of action (after an oral dose) is given as 5 to 30 min and the “share of men/patients with adequate response” value (oral) is given as 35–40%.
